# Results from patent publication US20170333390A1, “PHYTOCHEMICAL COMPOSITIONS INCLUDING SESAMIN FOR ANTI-INFLAMMATORY, ANTI-CYTOKINE STORM, AND OTHER USES” (CHIANG MAI UNIVERSITY, priority 2009, published 2017).
# Key:
# [1] = tested on: IL-2 gene expression in LPS induced peripheral blood mononuclear cells (PBMCs); assay: IL-2 gene expression relative to GAPDH in LPS induced PBMCs (RT-PCR); type: cell-based; conditions: 1.0 ug/ml sesamin (culture 4), LPS 20 ng/ml, 24 hours
# Protocol: Experiments were conducted to evaluate the effect of particular phytochemical compositions provided by the present disclosure on IL-2 gene expression in specified cells found within a body of a living organism. Cells used for the experiment described in this example are LPS induced peripheral blood mononuclear cells (PBMCs). It is understood by a person having ordinary skill in the art that the PBMCs may be substituted for other immune cells found within the body. It is also understood by a person having ordinary skill in the art that other inducing substances or chemicals besides LPS, for example viral antigens, may also be used for inducing the PBMCs.
# Preparation of PBMCs is done by standard isolation techniques or methods known to a person of ordinary skill in the art as with the experiments of example two. In addition, LPS can be obtained from a commercial source, for example Sigma-Aldrich Co. The PBMCs are cultured in 10% fetal calf serum in RPMI1640 medium. Five cultures of PBMCs, i.e. culture 1 to culture 5, were prepared. […]
# The amount or level of IL-2 gene expression in the PBMCs was measured or determined using methods or techniques known to a person having ordinary skill in the relevant art. In example three, Real-Time PCR (RT-PCR) was used for quantifying the amount of IL-2 gene expression in the PBMCs.
# [2] = tested on: influenza A (H1N1) virus-infected egg cells; assay: Quantity of IL-1 released by influenza A (H1N1) virus-infected egg cells; type: cell-based; conditions: for quantity of IL-1 released: 24 hours, FIG. 5; for percentage of quantity of human IL-1 released relative to quantity of isolated egg cells (diluted 1:50): uninfected culture 1 = 100%, FIG. 6
# Protocol: Experiments were conducted to evaluate the effects of particular phytochemical compositions provided by the present disclosure on quantity of IL-1 released by virus-infected cells. Virus-infected cells used for the experiments described in this example are influenza A (H1N1) virus-infected cells. More specifically, the virus-infected cells used for the experiments described in this example are influenza A (H1N1) virus-infected egg cells. The influenza A (H1N1) virus can be isolated from patients infected with the influenza A (H1N1) using standard techniques known to a person of ordinary skill in the art. In addition, isolation of cells (e.g., egg cells), and the infection of cells (e.g., isolated egg cells) can be performed using standard techniques or method known to a person of ordinary skill in the art. It is understood by a person having ordinary skill in the art that the influenza A (H1N1) virus-infected egg cells may be substituted for other viral-infected cells, or other cells found within the body, for instance, cells that that are involved in inflammatory responses within the body.
# Six cultures of cells, i.e., culture 1 to culture 6, were prepared. The contents of each of cultures 1 to culture 6 are as follows: • (i) Culture 1: Control culture 1. Includes a predetermined volume of a sample of isolated egg cells that has been diluted in a ratio of 1:50; • (ii) Culture 2: Control culture 2. Includes the predetermined volume of the sample of isolated egg cells similar to that of culture 1 that have been infected with the influenza A (H1N1) virus diluted at a ratio of 1:7812500; • (iii) Culture 3: Control culture 3. Includes the predetermined volume of the sample of isolated egg cells similar to that of culture 1 and a volume of DMSO that has been infected with the influenza A (H1N1) virus diluted at a ratio of 1:7812500; • (iv) Culture 4: Includes the predetermined volume of the sample of isolated egg cells that have been infected with the influenza A (H1N1) virus similar to that of culture 2, and a volume of phytochemical composition providing sesamin at a concentration of 0.5 ug/ml; • (v) Culture 5: Includes the predetermined volume of the sample of isolated egg cells that have been infected with the influenza A (H1N1) virus similar to that of culture 2, and a volume of phytochemical composition providing sesamin at a concentration of 1.0 ug/ml; and • (vi) Culture 6: Includes the predetermined volume of the sample of isolated egg cells that have been infected with the influenza A (H1N1) virus similar to that of culture 2, and a volume of phytochemical composition providing sesamin at a concentration of 10.0 ug/ml.
# In the experiments of example six, each of cultures 1 to 6 is made up to a final volume of approximately 200 μl in a well of a standard 96 well plate. It will be understood by a person of ordinary skill in the art that an alternative final volume (e.g., 100 μl) may also be used. The number or concentration of isolated egg cells used for each culture is approximately equal. For instance, the number of isolated egg cells used for each culture is approximately 2×10^5 (i.e., 200,000). It will be understood by a person of ordinary skill in the art that the number or concentration of isolated egg cells used for each of cultures 1 to 6 can be adjusted as required by varying the degree of dilution of the cultures (e.g., by increasing total volume of the culture by adding medium).
# Each of cultures 1 to 6 was incubated at the same physical conditions for an equal length of time. More specifically, each culture was incubated at a temperature of 37° C. with 5% of carbon dioxide for 24 hours. The amount of IL-1 released from the isolated egg cells of each of cultures 1 to 6 was measured or determined using methods or techniques known to a person having ordinary skill in the relevant art.
structure (smiles),measurement,setting,value
c1cc2c(cc1[C@H]1OC[C@H]3[C@@H]1CO[C@@H]3c1ccc3c(c1)OCO3)OCO2 [sesamin],increase in IL-2 gene expression relative GAPDH,[1],approximately 220%
same,quantity of IL-1 released,[2]; 0.5 ug/ml sesamin (culture 4),approximately 4 pg/ml
same,percentage of quantity of human IL-1 released relative to quantity of isolated egg cells (diluted 1:50),[2]; 0.5 ug/ml sesamin,approximately 22%
same,quantity of IL-1 released,[2]; 1.0 ug/ml sesamin (culture 5),approximately 3.5 pg/ml
same,percentage of quantity of human IL-1 released relative to quantity of isolated egg cells (diluted 1:50),[2]; 1.0 ug/ml sesamin,approximately 18%
same,quantity of IL-1 released,[2]; 10.0 ug/ml sesamin (culture 6),approximately 3 pg/ml
same,percentage of quantity of human IL-1 released relative to quantity of isolated egg cells (diluted 1:50),[2]; 10.0 ug/ml sesamin,approximately 16%
